Measurements as given in patent US20240245770A1, “COMPOSITIONS AND METHODS FOR TREATING NEUROMUSCULAR DISORDERS” (The Regents of the University of California, priority 2019, published 2024).

Tested on: serum cytokine/chemokine/growth factor/ligands of ALS patient
Assay: Serum Luminex, before and after NAC treatment
Format: in vivo, human
Experimental: (§1) Serum Luminex. Serum from patients were used to determine the levels of cytokine/chemokine/growth factor/ligands secretion using multiplex luminex assay. Scatter plot was prepared using the levels of cytokine/chemokine/growth factor/ligands in serum obtained at different dates from patients as compared to controls.
Serum Luminex. Serum from patients were used to determine the levels of cytokine/chemokine/growth factor/ligands secretion using multiplex luminex assay.
as §1

[1] = JC sera Apr. 30, 2020 (NAC infusion)
[2] = JC sera Jun. 22, 2020 (NAC infusion)
[3] = JC sera Jun. 24, 2020 (NAC infusion)
[4] = JC sera May 7, 2020 (NAC infusion)
[5] = JC sera May 14, 2020 (NAC infusion)
[6] = JC sera May 21, 2020 (NAC infusion)
[7] = JC sera May 28, 2020 (NAC infusion)
[8] = serum of ALS patient after NAC treatment

CC(=O)N[C@@H](CS)C(=O)O [NAC, N-Acetyl-Cysteine]
IL-5 (JC sera Apr. 30, 2020): 2 pg/mL | IL-7 (JC sera Apr. 30, 2020): 6.25 pg/mL | IL-8 (JC sera Apr. 30, 2020): 4.28 pg/mL | IL-21 (JC sera Apr. 30, 2020): 0.86 pg/mL | IL-23 (JC sera Apr. 30, 2020): 138.55 pg/mL | MIP-1a (JC sera Apr. 30, 2020): 11.35 pg/mL | MIP-1b (JC sera Apr. 30, 2020): 17.78 pg/mL | TNFa (JC sera Apr. 30, 2020): 8.46 pg/mL | Franktalkine [1]: 35.49 pg/mL | GM-CSF [1]: 59.71 pg/mL | IFNg [1]: 9.14 pg/mL | IL-1b [1]: 1.03 pg/mL | IL-10 [1]: 5.71 pg/mL | IL-12p70 [1]: 2.32 pg/mL | ITAC [1]: 14.07 pg/mL | MIP-3a [1]: 8.17 pg/mL | IL-2 (JC sera Jun. 22, 2020): 0.04 pg/mL | IL-4 (JC sera Jun. 22, 2020): 15.17 pg/mL | IL-5 (JC sera Jun. 22, 2020): 2.44 pg/mL | IL-6 (JC sera Jun. 22, 2020): 3.33 pg/mL | IL-7 (JC sera Jun. 22, 2020): 7.25 pg/mL | IL-8 (JC sera Jun. 22, 2020): 5.21 pg/mL | IL-21 (JC sera Jun. 22, 2020): 0.86 pg/mL | IL-23 (JC sera Jun. 22, 2020): 158.41 pg/mL | MIP-1a (JC sera Jun. 22, 2020): 12.15 pg/mL | MIP-1b (JC sera Jun. 22, 2020): 24.21 pg/mL | TNFa (JC sera Jun. 22, 2020): 9.2 pg/mL | Franktalkine [2]: 35.49 pg/mL | GM-CSF [2]: 50.3 pg/mL | IFNg [2]: 10.42 pg/mL | IL-1b [2]: 0.91 pg/mL | IL-10 [2]: 8.54 pg/mL | IL-12p70 [2]: 2.32 pg/mL | IL-13 [2]: 5.03 pg/mL | IL-17A [2]: 6.86 pg/mL | ITAC [2]: 13.07 pg/mL | MIP-3a [2]: 10.65 pg/mL | IL-2 (JC sera Jun. 24, 2020): 0.17 pg/mL | IL-4 (JC sera Jun. 24, 2020): 10.14 pg/mL | IL-5 (JC sera Jun. 24, 2020): 2.1 pg/mL | IL-7 (JC sera Jun. 24, 2020): 5.13 pg/mL | IL-8 (JC sera Jun. 24, 2020): 4.47 pg/mL | IL-21 (JC sera Jun. 24, 2020): 0.62 pg/mL | IL-23 (JC sera Jun. 24, 2020): 106.21 pg/mL | MIP-1a (JC sera Jun. 24, 2020): 12.15 pg/mL | MIP-1b (JC sera Jun. 24, 2020): 27.78 pg/mL | TNFa (JC sera Jun. 24, 2020): 8.82 pg/mL | Franktalkine [3]: 35.11 pg/mL | GM-CSF [3]: 111.4 pg/mL | IFNg [3]: 4.58 pg/mL | IL-1b [3]: 0.77 pg/mL | IL-10 [3]: 23.69 pg/mL | IL-12p70 [3]: 1.64 pg/mL | IL-13 [3]: 3.95 pg/mL | IL-17A [3]: 2.46 pg/mL | ITAC [3]: 10.44 pg/mL | MIP-3a [3]: 8.55 pg/mL | IL-2 (JC sera May 7, 2020): 0.21 pg/mL | IL-4 (JC sera May 7, 2020): 7.5 pg/mL | IL-5 (JC sera May 7, 2020): 1.77 pg/mL | IL-6 (JC sera May 7, 2020): 1.37 pg/mL | IL-7 (JC sera May 7, 2020): 4.06 pg/mL | IL-8 (JC sera May 7, 2020): 3.39 pg/mL | IL-21 (JC sera May 7, 2020): 0.62 pg/mL | IL-23 (JC sera May 7, 2020): 116.26 pg/mL | MIP-1a (JC sera May 7, 2020): 10.39 pg/mL | MIP-1b (JC sera May 7, 2020): 16.67 pg/mL | TNFa (JC sera May 7, 2020): 7.45 pg/mL | Franktalkine [4]: 33.33 pg/mL | GM-CSF [4]: 58.44 pg/mL | IFNg [4]: 4.81 pg/mL | IL-1b [4]: 0.72 pg/mL | IL-10 [4]: 6.63 pg/mL | IL-12p70 [4]: 1.6 pg/mL | IL-13 [4]: 3.99 pg/mL | IL-17A [4]: 2.78 pg/mL | ITAC [4]: 13.07 pg/mL | MIP-3a [4]: 7.8 pg/mL | IL-2 (JC sera May 12, 2020): 0 pg/mL | IL-4 (JC sera May 12, 2020): 10.14 pg/mL | IL-6 (JC sera May 12, 2020): 1.76 pg/mL | IL-7 (JC sera May 12, 2020): 5.13 pg/mL | IL-8 (JC sera May 12, 2020): 4.18 pg/mL | IL-21 (JC sera May 12, 2020): 0.62 pg/mL | IL-23 (JC sera May 12, 2020): 92.37 pg/mL | MIP-1a (JC sera May 12, 2020): 11.8 pg/mL | MIP-1b (JC sera May 12, 2020): 25.53 pg/mL | TNFa (JC sera May 12, 2020): 7.14 pg/mL | IL-2 (JC sera May 14, 2020): 8.16 pg/mL | IL-4 (JC sera May 14, 2020): 13.73 pg/mL | IL-5 (JC sera May 14, 2020): 1.72 pg/mL | IL-6 (JC sera May 14, 2020): 1.07 pg/mL | IL-7 (JC sera May 14, 2020): 6.39 pg/mL | IL-8 (JC sera May 14, 2020): 5.32 pg/mL | IL-21 (JC sera May 14, 2020): 0.56 pg/mL | IL-23 (JC sera May 14, 2020): 106.21 pg/mL | MIP-1a (JC sera May 14, 2020): 12.15 pg/mL | MIP-1b (JC sera May 14, 2020): 19.37 pg/mL | TNFa (JC sera May 14, 2020): 7.77 pg/mL | Franktalkine [5]: 31.36 pg/mL | GM-CSF [5]: 53.64 pg/mL | IFNg [5]: 4.14 pg/mL | IL-1b [5]: 0.8 pg/mL | IL-10 [5]: 4.47 pg/mL | IL-12p70 [5]: 1.81 pg/mL | IL-13 [5]: 4.08 pg/mL | IL-17A [5]: 2.24 pg/mL | ITAC [5]: 12.13 pg/mL | MIP-3a [5]: 6.78 pg/mL | Franktalkine [6]: 32.65 pg/mL | GM-CSF [6]: 48.19 pg/mL | IFNg [6]: 5.58 pg/mL | IL-1b [6]: 0.8 pg/mL | IL-10 [6]: 3.7 pg/mL | IL-12p70 [6]: 1.72 pg/mL | IL-13 [6]: 3.99 pg/mL | ITAC [6]: 15.13 pg/mL | MIP-3a [6]: 6.78 pg/mL | IL-2 (JC sera May 28, 2020): 0.01 pg/mL | IL-4 (JC sera May 28, 2020): 11.8 pg/mL | IL-5 (JC sera May 28, 2020): 2.21 pg/mL | IL-6 (JC sera May 28, 2020): 2.03 pg/mL | IL-7 (JC sera May 28, 2020): 5.99 pg/mL | IL-8 (JC sera May 28, 2020): 4.47 pg/mL | IL-21 (JC sera May 28, 2020): 0.75 pg/mL | IL-23 (JC sera May 28, 2020): 144.83 pg/mL | MIP-1a (JC sera May 28, 2020): 11.46 pg/mL | MIP-1b (JC sera May 28, 2020): 25.53 pg/mL | TNFa (JC sera May 28, 2020): 8.64 pg/mL | Franktalkine [7]: 37.04 pg/mL | GM-CSF [7]: 75.6 pg/mL | IFNg [7]: 8.94 pg/mL | IL-1b [7]: 0.87 pg/mL | IL-10 [7]: 6.63 pg/mL | IL-12p70 [7]: 2.16 pg/mL | IL-13 [7]: 4.44 pg/mL | IL-17A [7]: 5.49 pg/mL | ITAC [7]: 14.77 pg/mL | MIP-3a [7]: 8.17 pg/mL | serum cytokines of ALS patient compared to healthy twin after NAC treatment (serum Luminex, Table 137): only IFN-g and TNF-α remained higher in ALS patient when compared to healthy twin | change of serum cytokines after NAC treatment (serum from ALS patient, Table 138): Decrease in respective cytokines | Fractalkine [8]: 39.89 | GCSF [8]: 82.17 | IFNa2 [8]: 22.87 | IFNg [8]: 21.25 | IL-6 [8]: 14.86 | IL-12p40 [8]: 15.96 | IL-12p70 [8]: 9.801 | IL-17a [8]: 14.45 | Rantes [8]: 9578 | TNFa (serum of ALS patient after NAC treatment, in pg/mL): 29.18
